Measurements: US11389466B2 (priority 2017, dated 2022)
Where “and” joins values, the source holds several entries; their conditions need not be identical. Equal values may be shown once. Read-outs that look alike come from different tables or passages of the source.

Legend:
AFL lectin = AFL lectin (Aspergillus fumigatus, UniProt Q4WW81); test: biochemical; type: binding; conditions: for Stoichiometry: amount of ligand bound to a single protein; for β (β-factor, relative potency per ligand): β=(Kd)monovalent/[(Kd)multivalent×Valency], calculated from methylfucoside
[1] = test system: Aspergillus fumigatus conidia (adhesion on pneumocytes A549); type: cell-based
[2] = Table 2, second batch of purified AFL protein

AFL lectin, sequence (Q4WW81 whole entry): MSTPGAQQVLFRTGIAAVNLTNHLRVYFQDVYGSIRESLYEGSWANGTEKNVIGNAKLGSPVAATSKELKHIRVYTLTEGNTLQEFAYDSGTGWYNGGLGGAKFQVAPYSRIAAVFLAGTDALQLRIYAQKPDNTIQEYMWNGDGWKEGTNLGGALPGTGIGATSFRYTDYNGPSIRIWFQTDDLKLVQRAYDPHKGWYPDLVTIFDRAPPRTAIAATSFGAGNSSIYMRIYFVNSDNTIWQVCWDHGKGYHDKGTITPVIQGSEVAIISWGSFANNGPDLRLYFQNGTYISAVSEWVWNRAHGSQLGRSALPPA

Row | SMILES | Kd (AFL lectin) | −TΔS (AFL lectin; Table 1, first AFL batch) | −ΔG (AFL lectin; Table 1, first AFL batch) | −ΔH (AFL lectin; Table 1, first AFL batch) | Stoichiometry (AFL lectin; Table 1, first AFL batch) | β (β-factor, relative potency per ligand) (AFL lectin) | Kd (AFL lectin; [2]) | N (stoichiometry) (AFL lectin; [2]) | −TΔS (AFL lectin; [2]) | −ΔG (AFL lectin; [2]) | −ΔH (AFL lectin; [2]) | also measured
1 | C[C@@H]1O[C@@H](OCc2cn(CCOCCOCCOCCn3cc(CO[C@@H]4O[C@@H](C)[C@@H](O)[C@@H](O)[C@@H]4O)nn3)nn2)[C@@H](O)[C@H](O)[C@@H]1O [Compound 24] | 3.8 ± 0.3 µM | 46 ± 3 kJ/mol | 31 ± 0.2 kJ/mol | 77 ± 3 kJ/mol | 2.12 and 2.12 ± 0.03 | 68 |  |  |  |  |  | decrease of the adhesion of the conidia ([1]; 100 μM in fucose equivalent): 37%
2 | C[C@@H]1O[C@@H](OCc2cn(CCOCCOCCOCCOCCOCCOCCOCCOCCOCCOCCOCCn3cc(CO[C@@H]4O[C@@H](C)[C@@H](O)[C@@H](O)[C@@H]4O)nn3)nn2)[C@@H](O)[C@H](O)[C@@H]1O [Compound 26] | 0.55 µM | 36 ± 0.6 kJ/mol | 35.9 ± 0.9 kJ/mol | 74 ± 6 kJ/mol | 2.35 and 2.35 ± 0.31 | 470 |  |  |  |  |  | residual adhesion of the conidia on the pneumocytes ([1]; 10 μM in fucose equivalent): 76%
3 | CC1OC(OCCOCCOCc2cn(CC3OC4OC5C(Cn6cc(COCCOCCOC7OC(C)C(O)C(O)C7O)nn6)OC(OC6C(Cn7cc(COCCOCCOC8OC(C)C(O)C(O)C8O)nn7)OC(OC7C(Cn8cc(COCCOCCOC9OC(C)C(O)C(O)C9O)nn8)OC(OC8C(Cn9cc(COCCOCCOC%10OC(C)C(O)C(O)C%10O)nn9)OC(OC9C(Cn%10cc(COCCOCCOC%11OC(C)C(O)C(O)C%11O)nn%10)OC(OC3C(O)C4O)C(O)C9O)C(O)C8O)C(O)C7O)C(O)C6O)C(O)C5O)nn2)C(O)C(O)C1O (stereo not drawn) [Compound 29] |  | 125.5 ± 0.6 kJ/mol | 35.5 ± 0.1 kJ/mol | 161 ± 1 kJ/mol | 1.01 ± 0.02 | 144 | 0.53 ± 0.04 µM | 1.20 ± 0.09 | 136.1 ± 15.1 kJ/mol | 35.9 ± 0.2 kJ/mol | 171.8 ± 15.3 kJ/mol | Kd (AFL lectin; Table 1, first AFL batch): 0.6 µM; Kd values (in words) (AFL lectin; first AFL batch): sub-micromolar range; enthalpic contribution, times higher than the reference monovalent compound 33 (AFL lectin; first AFL batch): 2.7; increase of the −TΔS factor versus the reference monovalent compound (AFL lectin; first AFL batch): 3.3; formation of spore agglomerates (microscope observation) ([1]; A. fumigatus spores, compound 29 at 10 μM): formation of A. fumigatus spore agglomerates
4 | CC1OC(OCCOCCOCCOCCOCc2cn(CC3OC4OC5C(Cn6cc(COCCOCCOCCOCCOC7OC(C)C(O)C(O)C7O)nn6)OC(OC6C(Cn7cc(COCCOCCOCCOCCOC8OC(C)C(O)C(O)C8O)nn7)OC(OC7C(Cn8cc(COCCOCCOCCOCCOC9OC(C)C(O)C(O)C9O)nn8)OC(OC8C(Cn9cc(COCCOCCOCCOCCOC%10OC(C)C(O)C(O)C%10O)nn9)OC(OC9C(Cn%10cc(COCCOCCOCCOCCOC%11OC(C)C(O)C(O)C%11O)nn%10)OC(OC3C(O)C4O)C(O)C9O)C(O)C8O)C(O)C7O)C(O)C6O)C(O)C5O)nn2)C(O)C(O)C1O (stereo not drawn) [Compound 30] |  | 181 ± 8 kJ/mol | 38.4 ± 0.2 kJ/mol | 220 ± 8 kJ/mol | 0.77 ± 0.04 | 479 | 0.13 ± 0.01 µM | 0.95 ± 0.02 | 169.4 ± 0.6 kJ/mol | 39.3 ± 0.3 kJ/mol | 208.9 ± 1.0 kJ/mol | Kd (AFL lectin; Table 1, first AFL batch): 0.18 µM; Kd (AFL lectin; first AFL batch): 0.18 µM; Kd values (in words) (AFL lectin; first AFL batch): sub-micromolar range; enthalpic contribution, times higher than the reference monovalent compound 33 (AFL lectin; first AFL batch): 3.7; increase of the −TΔS factor versus the reference monovalent compound (AFL lectin; first AFL batch): 4.7
5 | C[C@@H]1O[C@@H](OCc2cn(CCOCCOCCOCCO)nn2)[C@@H](O)[C@H](O)[C@@H]1O [Compound 33, reference compound] | 167 µM | 38 ± 9 kJ/mol | 22 ± 1 kJ/mol | 60 ± 8 kJ/mol | 4.0 ± 0.3 | 3 |  |  |  |  |  | anti-adhesive activity (in words) ([1]; concentrations of 1 and 10 μM in fucose equivalent): absence of anti-adhesive activity
6 | CC1OC(OCc2cn(CCOCCOCCOCCSCC[Si]34O[Si]5(CCSCCOCCOCCOCCn6cc(COC7OC(C)C(O)C(O)C7O)nn6)O[Si]6(CCSCCOCCOCCOCCn7cc(COC8OC(C)C(O)C(O)C8O)nn7)O[Si](CCSCCOCCOCCOCCn7cc(COC8OC(C)C(O)C(O)C8O)nn7)(O3)O[Si]3(CCSCCOCCOCCOCCn7cc(COC8OC(C)C(O)C(O)C8O)nn7)O[Si](CCSCCOCCOCCOCCn7cc(COC8OC(C)C(O)C(O)C8O)nn7)(O4)O[Si](CCSCCOCCOCCOCCn4cc(COC7OC(C)C(O)C(O)C7O)nn4)(O5)O[Si](CCSCCOCCOCCOCCn4cc(COC5OC(C)C(O)C(O)C5O)nn4)(O6)O3)nn2)C(O)C(O)C1O (stereo not drawn) [Compound 40] | 0.4 ± 0.07 µM |  |  |  |  |  |  |  |  |  |  | N (stoichiometry) (AFL lectin): 0.84 ± 0.02; −TΔS (AFL lectin): 216.8 ± 16.9 kJ/mol; −ΔG (AFL lectin): 36.6 ± 0.4 kJ/mol; −ΔH (AFL lectin): 252.9 ± 17.0 kJ/mol
7 | CC1OC(OCc2cn(CC3OC4OC5C(Cn6cc(COC7OC(C)C(O)C(O)C7O)nn6)OC(OC6C(Cn7cc(COC8OC(C)C(O)C(O)C8O)nn7)OC(OC7C(Cn8cc(COC9OC(C)C(O)C(O)C9O)nn8)OC(OC8C(Cn9cc(COC%10OC(C)C(O)C(O)C%10O)nn9)OC(OC9C(Cn%10cc(COC%11OC(C)C(O)C(O)C%11O)nn%10)OC(OC3C(O)C4O)C(O)C9O)C(O)C8O)C(O)C7O)C(O)C6O)C(O)C5O)nn2)C(O)C(O)C1O (stereo not drawn) [Compound 44] |  |  |  |  |  |  | 1.94 ± 0.5 µM | 1.36 ± 0.01 | 90.4 ± 2.6 kJ/mol | 32.7 ± 0.7 kJ/mol | 122.9 ± 1.9 kJ/mol | 
8 | OC[C@H]1O[C@@H]2O[C@H]3[C@H](O)[C@@H](O)[C@@H](O[C@H]4[C@H](O)[C@@H](O)[C@@H](O[C@H]5[C@H](O)[C@@H](O)[C@@H](O[C@H]6[C@H](O)[C@@H](O)[C@@H](O[C@H]7[C@H](O)[C@@H](O)[C@@H](O[C@H]1[C@H](O)[C@H]2O)O[C@@H]7CO)O[C@@H]6CO)O[C@@H]5CO)O[C@@H]4CO)O[C@@H]3CO [free α-cyclodextrine, α-cyclodextrine, reference compound] |  |  |  |  |  |  |  |  |  |  |  | affinity for the AFL lectin (in words) (AFL lectin): no affinity
9 | CO[C@@H]1O[C@@H](C)[C@@H](O)[C@@H](O)[C@@H]1O [αMeFuc, methylfucoside, reference compound] |  | 26.8 kJ/mol | 16.9 kJ/mol | 48 kJ/mol | 5 |  |  | 3.3 ± 0.42 | 41.7 ± 6.2 kJ/mol | 22.6 ± 0.02 kJ/mol | 64.3 ± 6.2 kJ/mol | Kd (AFL lectin; Table 1, first AFL batch, read-out: Kd): 517 µM; Kd (AFL lectin; Table 2, second batch of purified AFL protein, read-out: Kd): 110 µM
